Legend:
[1] = system: SW480 (colon carcinoma) cells; test: MTT cytotoxicity assay, SW480 monolayer; format: cell-based, human; details: exposure time 96 h, mean ± SD
Method in brief: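 Monolayer cells seeded at 1 × 10^3 (CH1/PA-1), 2 × 10^3 (SW480), 3 × 10^3 (A549) or 7 × 10^3 (IMR-90) per well, preincubated 24 h, then exposed to serially diluted drug for 96 h. Viability by MTT (4 h), absorbance 550 nm (690 nm reference); IC50 interpolated from concentration-effect curves relative to untreated controls, ≥3 independent experiments.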

[2] = system: IMR-90 human lung fibroblasts; test: MTT cytotoxicity assay, IMR-90 fibroblasts; format: cell-based; details: exposure time 96 h, mean ± SD
Description: CH1/PA-1 (ovarian teratocarcinoma), SW480 (colon carcinoma) and A549 (non-small cell lung cancer) cells were maintained as described in the reference. IMR-90 human fetal lung fibroblasts (from the European Collection of Authenticated Cell Cultures, Porton Down, Salisbury, UK) were cultured in Stable Cell^TM DMEM/F12 supplemented with 0.01 mg/mL human recombinant insulin (both purchased from Sigma-Aldrich) and 10% fetal bovine serum (FBS, BioWest, Nuaillé, France). Human colon carcinoma cell lines HCT116 and HT29 (both kindly provided by the Institute of Cancer Research, Department of Medicine I, Medical University of Vienna, Austria) were cultured in McCoy’s 5a medium supplemented with 4 mM L-glutamine (both purchased from Sigma-Aldrich) and 10% FBS. MCF-7 human breast adenocarcinoma cells (kindly provided by M. Ogris, Department of Pharmaceutical Sciences, University of Vienna, Austria) were maintained in DMEM (high glucose) supplemented with 4 mM L-glutamine, 0.1 mg/mL human insulin (all purchased from Sigma-Aldrich) and 10% FBS. All cell lines were grown as monolayers in 75 cm^2 culture flasks (CytoOne, Starlab, Hamburg, Germany) at 37 °C in a humidified atmosphere containing 5% CO2.
Exponentially growing cells were plated into 96-well microculture plates (CytoOne, tissue culture treated, Starlab, Hamburg, Germany) in densities of 1 × 10^3 CH1/PA-1, 2 × 10^3 SW480, 3 × 10^3 A549 and 7 × 10^3 IMR-90 cells per well (each in 100 µL). After a 24 h preincubation, drugs were added in serial dilution to give a final volume of 200 µL/well and exposed for 96 h. At the end of the exposure, the drug solutions were replaced by 100 µL RPMI 1640/MTT mixture (7:1 ratio). MTT (3-(4,5-dimethylthiazol-2-yl)-2,5-diphenyl-2H-tetrazolium bromide), (Acros Organics, Geel, Belgium) solution was prepared in phosphate-buffered saline (5 mg/mL) and mixed with RPMI1640 medium supplemented with 4 mM L-glutamine (both from Sigma-Aldrich) and 10% FBS. After 4 h incubation, the formazan crystals were solubilized in 150 µL of DMSO per well. Absorbance was measured at 550 nm (and at 690 nm as a reference) with a microplate reader (ELx808, BioTek, Winoosky, VT, USA) and Gen5^TM 3.08 software (BioTek). The 50% inhibitory concentrations (IC50) relative to untreated controls were interpolated from concentration-effect curves. At least three biologically and technically independent experiments were performed.

HCT116 cells [3] = test: Resazurin assay, HCT116 2D monolayer; format: cell-based, human; details: 96 h
Method in brief: (§1)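 Monolayers seeded at 2 × 10^3 (HCT116, HT29) or 4 × 10^3 (MCF-7) cells per well and dosed with serial compound dilutions after 24 h. After 96 h exposure, resazurin added for 4 h; resorufin fluorescence read at 530 nm with 620 nm reference, cell-free blanks subtracted.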

[4] = system: HCT116 multicellular tumor spheroids; test: Resazurin assay, HCT116 3D spheroids; format: cell-based, human; details: 96 h
Method in brief: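 Spheroids formed from 400 HCT116, 400 HT29 or 800 MCF-7 cells in ultra-low attachment wells over 96 h, then exposed to serially diluted compounds for 96 h. Resazurin added with 12 h incubation; resorufin fluorescence read at 530 nm (reference 620 nm).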

HT29 cells [5] = test: Resazurin assay, HT29 2D monolayer; format: cell-based, human; details: 96 h
Method in brief: as §1

[6] = system: HCT116, HT29 and MCF-7 cell lines; test: ROS detection (DCFH-DA assay); format: cell-based, human; details: 2, 20, 100 and 200 µM, 2 h
Description: Reactive oxygen species (ROS) generation was measured by means of the DCFH-DA assay. […] On the following day, cells were washed with 200 µL Hanks’ balanced salt solution (HBSS, Sigma-Aldrich, containing 1% FBS) and stained with 100 µL of 25 µM DCFH-DA (2′,7′-dichlorofluorescein diacetate, Sigma-Aldrich) in HBSS (containing 1% FBS) for 45 min at 37 °C in the dark. After the incubation period, cells were washed with 200 µL HBSS (1% FBS) and loaded with compounds at concentrations of 2 µM, 20 µM, 100 µM and 200 µM in 200 µL phenol-red-free MEM (1% FBS) in triplicates. As positive controls, cells were treated with 200 µM and 400 µM tert-butylhydroperoxide (Sigma-Aldrich). Wells containing only phenol-red-free medium with 1% FBS were used as blanks, and non-drug treated, cell containing wells as reference values. Fluorescence (excitation: 485/20 nm, emission: 516/20 nm) was recorded in 10 min intervals with the Synergy HT reader (BioTek) over 2 h.

HCT116 cells [7] = test: Annexin V-FITC/PI apoptosis assay, HCT116; format: cell-based, human; details: HCT116, 24 h; for ∑apoptotic cells [%]: sum of early and late
HT29 cells [8] = test: Annexin V-FITC/PI apoptosis assay, HT29; details: HT29, 24 h; for ∑apoptotic cells [%]: sum of early and late
MCF-7 cells = test: Annexin V-FITC/PI apoptosis assay, MCF-7; details: MCF-7, 24 h; for ∑apoptotic cells [%]: sum of early and late

F[P-](F)(F)(F)(F)F.O=c1c([O-])c(-c2ccc(Cl)cc2)oc2ccccc12.[W+4].c1cc[cH-]c1.c1cc[cH-]c1 [Compound 3, Bis(η^5-cyclopentadienyl)[2-(4-chlorophenyl)-3-(oxo-κO)-4(H)-chromen-4-oato-κO]tungsten(IV) hexafluorophosphate]
IC50 [1]: 5.4 ± 1.1 µM | IC50 [2]: 38.2 ± 0.4 µM | IC50 (HCT116 cells [3]): 9.2 ± 1.4 µM | ratio 3D/2D of IC50 values, HCT116 [4]: 2.3 | IC50 ([4]; spheroids): 21 ± 4 µM | IC50 (HT29 cells [5]): 17 ± 4 µM | intracellular ROS levels [6]: Pronounced elevation of ROS levels | early apoptotic cells [%] AV+ / PI- (HCT116 cells [7]; 2 µM): 4.6 ± 1.7% | late apoptotic cells [%] AV+ / PI+ (HCT116 cells [7]; 2 µM): 13.5 ± 0.6% | necrotic cells [%] AV- / PI+ (HCT116 cells [7]; 2 µM): 4.3 ± 0.7% | viable cells [%] AV- / PI- (HCT116 cells [7]; 2 µM): 77.7 ± 1.6% | ∑apoptotic cells [%] (HCT116 cells [7]; 2 µM): 18.1% | early apoptotic cells [%] AV+ / PI- (HCT116 cells [7]; 20 µM): 5.0 ± 0.9% | late apoptotic cells [%] AV+ / PI+ (HCT116 cells [7]; 20 µM): 12.1 ± 2.9% | necrotic cells [%] AV- / PI+ (HCT116 cells [7]; 20 µM): 2.5 ± 0.6% | viable cells [%] AV- / PI- (HCT116 cells [7]; 20 µM): 80.4 ± 2.6% | ∑apoptotic cells [%] (HCT116 cells [7]; 20 µM): 17.1% | early apoptotic cells [%] AV+ / PI- (HCT116 cells [7]; 100 µM): 3.3 ± 1.1% | late apoptotic cells [%] AV+ / PI+ (HCT116 cells [7]; 100 µM): 75.5 ± 5.6% | necrotic cells [%] AV- / PI+ (HCT116 cells [7]; 100 µM): 12.8 ± 0.2% | viable cells [%] AV- / PI- (HCT116 cells [7]; 100 µM): 8.6 ± 4.3% | ∑apoptotic cells [%] (HCT116 cells [7]; 100 µM): 78.8% | early apoptotic cells [%] AV+ / PI- (HCT116 cells [7]; 200 µM): 0.0 ± 0.0% | late apoptotic cells [%] AV+ / PI+ (HCT116 cells [7]; 200 µM): 94.1 ± 4.8% | necrotic cells [%] AV- / PI+ (HCT116 cells [7]; 200 µM): 5.5 ± 4.9% | viable cells [%] AV- / PI- (HCT116 cells [7]; 200 µM): 0.4 ± 0.3% | early apoptotic cells [%] AV+ / PI- (HT29 cells [8]; 2 µM): 4.6 ± 4.1% | late apoptotic cells [%] AV+ / PI+ (HT29 cells [8]; 2 µM): 7.2 ± 3.8% | necrotic cells [%] AV- / PI+ (HT29 cells [8]; 2 µM): 5.1 ± 4.2% | viable cells [%] AV- / PI- (HT29 cells [8]; 2 µM): 83.0 ± 3.8% | ∑apoptotic cells [%] (HT29 cells [8]; 2 µM): 11.8% | early apoptotic cells [%] AV+ / PI- (HT29 cells [8]; 20 µM): 8.6 ± 2.5% | late apoptotic cells [%] AV+ / PI+ (HT29 cells [8]; 20 µM): 11.1 ± 1.0% | necrotic cells [%] AV- / PI+ (HT29 cells [8]; 20 µM): 5.4 ± 1.2% | viable cells [%] AV- / PI- (HT29 cells [8]; 20 µM): 74.9 ± 3.3% | ∑apoptotic cells [%] (HT29 cells [8]; 20 µM): 19.7% | early apoptotic cells [%] AV+ / PI- (HT29 cells [8]; 200 µM): 0.8 ± 0.5% | late apoptotic cells [%] AV+ / PI+ (HT29 cells [8]; 200 µM): 82.2 ± 4.1% | necrotic cells [%] AV- / PI+ (HT29 cells [8]; 200 µM): 14.9 ± 2.8% | viable cells [%] AV- / PI- (HT29 cells [8]; 200 µM): 2.2 ± 1.3% | early apoptotic cells [%] AV+ / PI- (MCF-7 cells; 2 µM): 1.4 ± 0.5% | late apoptotic cells [%] AV+ / PI+ (MCF-7 cells; 2 µM): 4.3 ± 1.5% | necrotic cells [%] AV- / PI+ (MCF-7 cells; 2 µM): 2.5 ± 0.6% | viable cells [%] AV- / PI- (MCF-7 cells; 2 µM): 91.8 ± 1.9% | ∑apoptotic cells [%] (MCF-7 cells; 2 µM): 5.6% | early apoptotic cells [%] AV+ / PI- (MCF-7 cells; 10 µM): 1.4 ± 0.3% | late apoptotic cells [%] AV+ / PI+ (MCF-7 cells; 10 µM): 7.7± 4.4% | necrotic cells [%] AV- / PI+ (MCF-7 cells; 10 µM): 4.1 ± 1.8% | viable cells [%] AV- / PI- (MCF-7 cells; 10 µM): 86.9 ± 5.9% | ∑apoptotic cells [%] (MCF-7 cells; 10 µM): 9.1% | early apoptotic cells [%] AV+ / PI- (MCF-7 cells; 20 µM): 1.5 ± 0.6% | late apoptotic cells [%] AV+ / PI+ (MCF-7 cells; 20 µM): 11.4 ± 0.7% | necrotic cells [%] AV- / PI+ (MCF-7 cells; 20 µM): 8.7 ± 0.3% | viable cells [%] AV- / PI- (MCF-7 cells; 20 µM): 78.5 ± 1.0% | ∑apoptotic cells [%] (MCF-7 cells; 20 µM): 12.9% | early apoptotic cells [%] AV+ / PI- (MCF-7 cells; 50 µM): 1.3 ± 0.5% | late apoptotic cells [%] AV+ / PI+ (MCF-7 cells; 50 µM): 16.2 ± 2.5% | necrotic cells [%] AV- / PI+ (MCF-7 cells; 50 µM): 25 ± 0.9% | viable cells [%] AV- / PI- (MCF-7 cells; 50 µM): 57.7 ± 2.2%

Reference: article PMC10384408, “Anticancer Tungstenocenes with a Diverse Set of (O,O–), (O,S–) and (O,N–) Chelates—A Detailed Biological Study Using an Improved Evaluation via 3D Spheroid Models” (Pharmaceutics, 2023)
